In patent US20060069132A1, “Azolecarboxamide herbicides” (priority 2004, published 2006):

Assays:
[1] = system: common ragweed; test: Test C pre-/postemergence herbicide test; type: in vivo, Ambrosia elatior; parameters: key to Plant response rating, Ragweed: 0 = no effect, 100 = complete control
Method in brief: (§1)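 Preemergence: seeds planted and treated with compound in non-phytotoxic solvent with surfactant; postemergence: plants at 2 to 18 cm (1- to 4-leaf stage) sprayed likewise. Kept in greenhouse 12 to 14 days, then visually rated against controls, 0 (no effect) to 100 (complete control).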

[2] = system: giant foxtail; test: Test C pre-/postemergence herbicide test; type: in vivo, Setaria faberi
Method in brief: as §1

[3] = system: morningglory; test: Test C pre-/postemergence herbicide test; type: in vivo, Ipomoea coccinea; parameters: key to Plant response rating, Morningglory: 0 = no effect, 100 = complete control
Method in brief: as §1

[4] = system: corn; test: Test C pre-/postemergence herbicide test; type: in vivo, Zea mays
Method in brief: as §1

[5] = system: large crabgrass; test: Test C pre-/postemergence herbicide test; type: in vivo, Digitaria sanguinalis
Method in brief: as §1

[6] = system: morningglory; test: Test A pre-/postemergence herbicide test; type: in vivo, Ipomoea spp.
Method in brief: (§2)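 Sandy loam soil given preemergence directed spray; plants at 2 to 10 cm, one- to two-leaf stage, sprayed to runoff postemergence, compounds in non-phytotoxic solvent with surfactant. Injury rated visually versus untreated controls after about ten greenhouse days, 0 (no effect) to 100 (complete control); dash means not tested.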

[7] = system: bermudagrass; test: Test C pre-/postemergence herbicide test; type: in vivo, Cynodon dactylon; conditions: for Bermudagrass plant response rating: Preemergence, 500 g ai/ha
Method in brief: as §1

[8] = system: rice; test: Test C flooded paddy test; type: in vivo, Oryza sativa; conditions: for Plant response rating, Rice: 500 g ai/ha, visual rating after 12 to 14 days
Method in brief: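 Injury scored visually against controls on a 0 (no effect) to 100 (complete control) scale, 12 to 14 days after treatment in greenhouse. Flooded paddy plants treated at 2-leaf stage; postemergence plants at 1- to 4-leaf stage, 2 to 18 cm tall.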

[9] = system: ducksalad; test: Test C flooded paddy test; type: in vivo, Heteranthera limosa; conditions: for Plant response rating, Ducksalad: 500 g ai/ha, visual rating after 12 to 14 days
[10] = system: kochia; test: Test C pre-/postemergence herbicide test; type: in vivo, Kochia scoparia; conditions: for Kochia plant response rating: Preemergence
Method in brief: as §1

[11] = system: barnyardgrass; test: Test A pre-/postemergence herbicide test; type: in vivo, Echinochloa crus-galli
Method in brief: as §2

[12] = system: smallflower umbrella sedge; test: Test C flooded paddy test; type: in vivo, Cyperus difformis; conditions: for Plant response rating, Sedge, Umbrella: 500 g ai/ha, visual rating after 12 to 14 days
[13] = system: common (oilseed) sunflower; test: Test C pre-/postemergence herbicide test; type: in vivo, Helianthus annuus; conditions: for Plant response rating (0 = no effect, 100 = complete control), Sunflower / Plant response rating, Sunflower: preemergence; for Sunflower plant response rating: Preemergence, scale 0 to 100, 0 no effect, 100 complete control
Method in brief: as §1

[14] = 125 g ai/ha, scale 0 (no effect) to 100 (complete control), visual, 12 to 14 days, preemergence
[15] = Preemergence, 500 g ai/ha, scale 0 to 100, 0 no effect, 100 complete control
[16] = 250 g ai/ha, scale 0 to 100 (0 no effect, 100 complete control), visual, 12 to 14 days, preemergence
[17] = Postemergence, 500 g ai/ha, 0 to 100 scale, 0 no effect, 100 complete control
[18] = Postemergence, 2000 g ai/ha, 0 to 100 scale, 0 no effect, 100 complete control
[19] = Preemergence, 500 g ai/ha, visual rating, 0 to 100 scale (0 no effect, 100 complete control)
[20] = Preemergence, 2000 g ai/ha, visual rating, 0 to 100 scale (0 no effect, 100 complete control)
[21] = scale 0 to 100, 0 no effect, 100 complete control
[22] = 62 g ai/ha, scale 0 to 100 (0 no effect, 100 complete control)
[23] = 125 g ai/ha, scale of 0 to 100, 0 is no effect, 100 is complete control
[24] = 250 g ai/ha, scale of 0 to 100, 0 is no effect, 100 is complete control
[25] = scale 0 to 100 (0 no effect, 100 complete control)
[26] = 500 g ai/ha, scale 0 to 100, 0 no effect, 100 complete control
[27] = 125 g ai/ha, scale 0 (no effect) to 100 (complete control), visual, 12 to 14 days
[28] = 62 g ai/ha, preemergence, scale 0 to 100
[29] = 250 g ai/ha, scale 0-100, preemergence
[30] = 500 g ai/ha, scale 0 to 100 (0 no effect, 100 complete control), visual, 12 to 14 days, preemergence
[31] = preemergence, 500 g ai/ha, visual injury, 0 to 100 scale (0 no effect, 100 complete control)
[32] = 125 g ai/ha, scale 0 to 100 (0 no effect, 100 complete control)
[33] = Postemergence, 500 g ai/ha, scale 0 to 100
[34] = Postemergence, 250 g ai/ha, scale 0 to 100, 0 no effect, 100 complete control
[35] = postemergence, 125 g ai/ha, scale 0 to 100
[36] = postemergence, 62 g ai/ha, scale 0 to 100

CC(=NO)c1cccc(NC(=O)c2cc(C(C)(C)C)nn2C)c1 [Compound 102]
0: Plant response rating (0 = no effect, 100 = complete control), Corn ([4]; 62 g ai/ha, preemergence) | Plant response rating, Corn [4, 14] | Plant response rating (0 = no effect, 100 = complete control), Kochia ([10]; 62 g ai/ha, preemergence) | Plant response rating (0 = no effect, 100 = complete control), Sunflower ([13]; 62 g ai/ha)
65: Morningglory plant response rating [6, 19]
70: Plant response rating, Morningglory [3, 14] | Barnyardgrass plant response rating [11, 19] | Sedge, Umbrella plant response rating [12, 23] | Sedge, Umbrella plant response rating [12, 24]
100: Ragweed plant response rating [1, 15] | Plant response rating (0 = no effect, 100 = complete control), Crabgrass, Large ([5]; 62 g ai/ha, preemergence) | Plant response rating, Crabgrass, Large [5, 14] | Plant response rating, Crabgrass, Large [5, 16] | Crabgrass, Large plant response rating [5, 15] | Plant response rating (0 = no effect, 100 = complete control), Bermudagrass ([7]; 62 g ai/ha, preemergence) | Plant response rating, Bermudagrass [7, 14] | Plant response rating, Bermudagrass [7, 16] | Bermudagrass plant response rating [7, 21]
60: Plant response rating, Rice [8, 25] | Kochia plant response rating [10, 26]
85: Barnyardgrass plant response rating [11, 20]
40: Rice plant response rating [8, 24]
55: Plant response rating, Morningglory [6, 18] | Barnyardgrass plant response rating [11, 17]
75: Plant response rating, Barnyardgrass [11, 18]
80: Plant response rating, Foxtail, Giant [2, 16] | Foxtail, Giant plant response rating [2, 15] | Morningglory plant response rating [3, 15] | Ducksalad plant response rating [9, 23] | Plant response rating, Sedge, Umbrella [12, 25]
20: Plant response rating, Ragweed [1, 14] | Rice plant response rating [8, 22] | Ducksalad plant response rating [9, 22] | Plant response rating, Sunflower [13, 27] | Sunflower plant response rating ([13]; 500 g ai/ha)
50: Plant response rating, Foxtail, Giant [2, 14] | Sedge, Umbrella plant response rating [12, 22]
30: Plant response rating (0 = no effect, 100 = complete control), Morningglory ([3]; 62 g ai/ha, preemergence) | Corn plant response rating [4, 15] | Rice plant response rating [8, 23] | Plant response rating, Kochia [10, 14]
35: Morningglory plant response rating [6, 17]
10: Plant response rating (0 = no effect, 100 = complete control), Ragweed ([1]; 62 g ai/ha, preemergence) | Plant response rating (0 = no effect, 100 = complete control), Foxtail, Giant ([2]; 62 g ai/ha, preemergence) | Plant response rating, Corn [4, 16]
90: Morningglory plant response rating [6, 20] | Ducksalad plant response rating [9, 24] | Plant response rating, Ducksalad [9, 25]

CCc1nc(C(C)(C)C)sc1C(=O)Nc1cccc(C(=O)NCC2CC2)n1 [Compound 215]
70: Plant response rating, Foxtail, Giant [2, 29] | Plant response rating, Crabgrass, Large [5, 14] | Plant response rating, Bermudagrass [7, 14] | Sedge, Umbrella plant response rating [12, 24]
15: Barnyardgrass plant response rating [11, 31]
60: Ducksalad plant response rating [9, 24]
100: Plant response rating, Ragweed [1, 29] | Plant response rating, Ragweed [1, 30] | Plant response rating, Foxtail, Giant [2, 30] | Plant response rating, Crabgrass, Large [5, 30] | Bermudagrass plant response rating [7, 21] | Plant response rating, Kochia [10, 28] | Plant response rating, Kochia [10, 14] | Plant response rating, Kochia [10, 29] | Plant response rating, Kochia [10, 30]
55: Morningglory plant response rating [6, 20]
35: Plant response rating, Morningglory [6, 18] | Barnyardgrass plant response rating [11, 20]
90: Plant response rating, Sedge, Umbrella [12, 25]
80: Plant response rating, Ducksalad [9, 25]
40: Plant response rating, Morningglory [3, 30] | Plant response rating, Bermudagrass ([7]; 62 g ai/ha, preemergence, scale 0 to 100, 0 no effect, 100 complete control) | Ducksalad plant response rating [9, 22] | Ducksalad plant response rating [9, 32] | Sedge, Umbrella plant response rating [12, 22] | Sedge, Umbrella plant response rating [12, 32]
0: Plant response rating, Ragweed [1, 28] | Plant response rating, Foxtail, Giant [2, 28] | Plant response rating, Morningglory [3, 28] | Plant response rating, Morningglory [3, 14] | Plant response rating, Morningglory [3, 29] | Plant response rating, Corn [4, 28] | Plant response rating, Crabgrass, Large [5, 28] | Rice plant response rating [8, 22] | Rice plant response rating [8, 32] | Rice plant response rating [8, 24] | Barnyardgrass plant response rating [11, 17] | Plant response rating, Sunflower ([13]; 62 g ai/ha, scale 0 to 100) | Plant response rating, Sunflower ([13]; 250 g ai/ha, scale 0-100) | Plant response rating, Sunflower ([13]; 500 g ai/ha, scale 0 to 100 (0 no effect, 100 complete control), visual, 12 to 14 days)
25: Morningglory plant response rating [6, 17] | Plant response rating, Barnyardgrass [11, 18]
20: Plant response rating, Corn [4, 14] | Plant response rating, Corn [4, 29] | Morningglory plant response rating [6, 31] | Plant response rating, Rice [8, 25]
50: Plant response rating, Foxtail, Giant [2, 14] | Plant response rating, Corn [4, 30]
85: Plant response rating, Crabgrass, Large [5, 29] | Plant response rating, Bermudagrass [7, 29]

CCn1nc(C(C)(C)C)cc1C(=O)Nc1cccc(C(=O)NC2CC2)n1 [Compound 146]
10: Plant response rating, Foxtail, Giant [2, 14] | Foxtail, Giant plant response rating [2, 33] | Plant response rating, Corn [4, 16] | Plant response rating, Corn [4, 34] | Plant response rating (0 = no effect, 100 = complete control), Bermudagrass ([7]; 62 g ai/ha, preemergence)
5: Plant response rating, Morningglory [3, 14] | Plant response rating, Corn [4, 35] | Plant response rating, Corn [4, 36] | Morningglory plant response rating [6, 17] | Morningglory plant response rating [6, 19] | Plant response rating, Kochia [10, 36]
50: Morningglory plant response rating [3, 15] | Plant response rating, Crabgrass, Large [5, 34] | Morningglory plant response rating [6, 20] | Plant response rating (0 = no effect, 100 = complete control), Kochia ([10]; 62 g ai/ha, preemergence) | Plant response rating, Kochia [10, 14] | Barnyardgrass plant response rating [11, 17]
70: Ragweed plant response rating [1, 15] | Crabgrass, Large plant response rating [5, 15] | Plant response rating, Bermudagrass [7, 16] | Barnyardgrass plant response rating [11, 19]
30: Corn plant response rating [4, 33] | Corn plant response rating [4, 15]
80: Foxtail, Giant plant response rating [2, 15] | Barnyardgrass plant response rating [11, 20] | Sedge, Umbrella plant response rating [12, 32]
90: Bermudagrass plant response rating [7, 21] | Sedge, Umbrella plant response rating [12, 24] | Plant response rating, Sedge, Umbrella [12, 25]
75: Plant response rating, Barnyardgrass [11, 18]
0: Plant response rating (0 = no effect, 100 = complete control), Ragweed ([1]; 62 g ai/ha, preemergence) | Plant response rating, Ragweed [1, 14] | Ragweed plant response rating [1, 33] | Plant response rating, Ragweed [1, 34] | Plant response rating, Ragweed [1, 35] | Plant response rating, Ragweed [1, 36] | Plant response rating (0 = no effect, 100 = complete control), Foxtail, Giant ([2]; 62 g ai/ha, preemergence) | Plant response rating, Foxtail, Giant [2, 34] | Plant response rating, Foxtail, Giant [2, 35] | Plant response rating, Foxtail, Giant [2, 36] | Plant response rating (0 = no effect, 100 = complete control), Morningglory ([3]; 62 g ai/ha, preemergence) | Morningglory plant response rating [3, 33] | Plant response rating, Morningglory [3, 34] | Plant response rating, Morningglory [3, 35] | Plant response rating, Morningglory [3, 36] | Plant response rating (0 = no effect, 100 = complete control), Corn ([4]; 62 g ai/ha, preemergence) | Plant response rating, Corn [4, 14] | Plant response rating, Crabgrass, Large [5, 35] | Plant response rating, Crabgrass, Large [5, 36] | Plant response rating, Morningglory [6, 18] | Plant response rating, Bermudagrass [7, 34] | Rice plant response rating [8, 22] | Rice plant response rating [8, 32] | Rice plant response rating [8, 24] | Ducksalad plant response rating [9, 22] | Ducksalad plant response rating [9, 32] | Plant response rating (0 = no effect, 100 = complete control), Sunflower ([13]; 62 g ai/ha) | Plant response rating, Sunflower [13, 27] | Sunflower plant response rating ([13]; 500 g ai/ha)
85: Crabgrass, Large plant response rating [5, 33]
60: Plant response rating, Foxtail, Giant [2, 16] | Plant response rating, Bermudagrass [7, 14] | Sedge, Umbrella plant response rating [12, 22]
20: Plant response rating (0 = no effect, 100 = complete control), Crabgrass, Large ([5]; 62 g ai/ha, preemergence) | Plant response rating, Rice [8, 25] | Ducksalad plant response rating [9, 24] | Plant response rating, Ducksalad [9, 25] | Plant response rating, Kochia [10, 34]
100: Kochia plant response rating [10, 26]
